Target: T1, Recombinant human His-tagged Trim24-PHD-bromodomain (Homo sapiens, UniProt O15164)
T1 construct: Recombinant human His-tagged Trim24-PHD-bromodomain (produced in-house); made in house
T1 sequence (O15164 824-1006 limits assumed): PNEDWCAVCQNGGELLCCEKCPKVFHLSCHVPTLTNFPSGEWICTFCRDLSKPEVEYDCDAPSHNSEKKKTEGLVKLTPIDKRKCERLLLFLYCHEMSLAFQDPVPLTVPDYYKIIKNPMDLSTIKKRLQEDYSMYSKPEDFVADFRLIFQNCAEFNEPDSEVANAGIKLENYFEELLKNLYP
Assay: Trim24 AlphaScreen Assay
Type: binding
Conditions: 5 nM Trim24 protein, 15 nM biotinylated H3K23ac (1-33aa) peptide
Description: Recombinant human His-tagged Trim24-PHD-bromodomain (produced in-house), biotinylated H3K23ac (1-33aa) peptide (AnaSpec, Inc.), and test compound were added to a 384-well OptiPlate (Perkin Elmer) and incubated at room temperature for one hour. The assay buffer consisted of 50 mM Hepes, pH 7.5, 100 mM NaCl, and 0.12 mM Triton X-100.
Streptavidin donor beads and nickel chelate acceptor beads, both from a Perkin Elmer AlphaScreen Histidine Detection Kit, were then added to the Optiplate to a final concentration of 10 ug/mL each. Following a 2 hour incubation at room temperature, the microplate was read on an Envision Plate Reader (Perkin Elmer). Percent of control (POC) values were calculated from the following formula:
POC=[sample signal-average background signal]/[average maximum signal−average background signal]*100
The average maximum signal was obtained from wells containing all assay components except test compound. The average background signal pertained to wells with all assay components except Trim24 and test compound. IC50 values were calculated using a four-parameter logistic curve fit.

**Q.** Which IC50 does the source give for `CCCOc1cc(OCCCOC)cc(Oc2cc3c(cc2NS(=O)(=O)c2cccc(F)c2)n(C)c(=O)n3C)c1` [Example 156, 3-fluoro-N-(6-(3-(3-methoxypropoxy)-5-propoxyphenoxy)-1,3-dimethyl-2-oxo-2,3-dihydro-1H-benzo[d]imidazol-5-yl)benzenesulfonamide] here?
**A.** 100 to 1000 nM

**Q.** With `CCC(C)COc1cccc(Oc2cc3c(cc2NS(=O)(=O)c2cn(C)c(C)n2)n(C)c(=O)n3C)c1` (stereo not drawn) [Example 62, N-(1,3-dimethyl-6-(3-(2-methylbutoxy)phenoxy)-2-oxo-2,3-dihydro-1H-benzo[d]imidazol-5-yl)-1,2-dimethyl-1H-imidazole-4-sulfonamide] as the compound, how does the IC50 read?
**A.** 100 to 1000 nM

**Q.** For `CCCOc1cccc(Oc2cc3c(cc2NS(=O)(=O)c2cc(OC)cc(OC)c2)n(C)c(=O)n3C)c1` [Example 169, N-(1,3-dimethyl-2-oxo-6-(3-propoxyphenoxy)-2,3-dihydro-1H-benzo[d]imidazol-5-yl)-3,5-dimethoxybenzenesulfonamide], which IC50 is on record?
**A.** 100 to 1000 nM

**Q.** Which IC50 does the source give for `C=CCOc1cccc(S(=O)(=O)Nc2cc3c(cc2Oc2cccc(OCCC)c2)n(C)c(=O)n3C)c1` [Example 106, 3-(allyloxy)-N-(1,3-dimethyl-2-oxo-6-(3-propoxyphenoxy)-2,.3-dihydro-1H-benzo[d]imidazol-5-yl)benzenesulfonamide] here?
**A.** 100 to 1000 nM

**Q.** With `Cn1c(=O)n(C)c2cc(Oc3cccc(OCc4ccccc4)c3)c(NS(=O)(=O)c3cccnc3)cc21` [Example 14, N-(6-(3-(benzyloxy)phenoxy)-1,3-dimethyl-2-oxo-2,3-dihydro-1H-benzo[d]imidazol-5-yl)pyridine-3-sulfonamide] as the compound, how does the IC50 read?
**A.** 100 to 1000 nM

**Q.** With `Cn1c(=O)n(C)c2cc(Oc3cccc(OCC4CC4)c3)c(NS(=O)(=O)c3cn[nH]c3)cc21` [Example 132, N-(6-(3-(cyclopropylmethoxy)phenoxy)-1,3-dimethyl-2-oxo-2,3-dihydro-1H-benzo[d]imidazol-5-yl)-1H-pyrazole-4-sulfonamide] as the compound, how does the IC50 read?
**A.** 100 to 1000 nM

**Q.** `CCCOc1cc(OCCCOC)cc(Oc2cc3c(cc2NS(=O)(=O)c2ccc(OC)cc2)n(C)c(=O)n3C)c1` [Example 157, 4-methoxy-N-(6-(3-(3-methoxypropoxy)-5-propoxyphenoxy)-1,3-dimethyl-2-oxo-2,3-dihydro-1H-benzo[d]imidazol-5-yl)benzenesulfonamide] was tested. Which IC50 did it give?
**A.** 100 to 1000 nM

**Q.** With `CCCOc1ccc(F)c(Oc2cc3c(cc2NS(=O)(=O)c2cn(C)c(C)n2)n(C)c(=O)n3C)c1` [Example 133, N-(6-(2-fluoro-5-propoxyphenoxy)-1,3-dimethyl-2-oxo-2,3-ddihydro-1H-benzo[d]imidazol-5-yl)-1,2-dimethyl-1H-imidazole-4-sulfonamide] as the compound, how does the IC50 read?
**A.** 100 to 1000 nM

**Q.** `Cn1c(=O)n(C)c2cc(Oc3cccc(OCc4ccccc4)c3)c(NS(=O)(=O)c3c[nH]cn3)cc21` [Example 78, N-(6-(3-(benzyloxy)phenoxy)-1,3-dimethyl-2-oxo-2,3-dihydro-1H-benzo[d]imidazol-5-yl)-1H-imidazole-4-sulfonamide] was tested. Which IC50 did it give?
**A.** 100 to 1000 nM

**Q.** With `Cn1cnc(S(=O)(=O)Nc2cc3c(cc2Oc2cc(OCCCCCCN)cc(OCC(F)(F)F)c2)n(C)c(=O)n3C)c1` [Example 202, N-(6-(3-((6-aminohexyl)oxy)-5-(2,2,2-trifluoroethoxy)phenoxy)-1,3-dimethyl-2-oxo-2,3-dihydro-1H-benzo[d]imidazol-5-yl)-1-methyl-1H-imidazole-4-sulfonamide] as the compound, how does the IC50 read?
**A.** 1 to 10 nM

**Q.** How did the IC50 turn out when `CCCOc1cccc(Oc2cc3c(cc2NS(=O)(=O)c2cccc(OC/C=C/CCCN)c2)n(C)c(=O)n3C)c1` [Example 243, (E)-3-((6-aminohex-2-en-1-yl)oxy)-N-(1,3-dimethyl-2-oxo-6-(3-propoxyphenoxy)-2,3-dihydro-1H-benzo[d]imidazol-5-yl)benzenesulfonamide 2,2,2-trifluoroacetate] was run?
**A.** 10 to 100 nM

**Q.** For `Cc1ccccc1S(=O)(=O)Nc1cc2c(cc1Oc1cccc(OCc3ccccc3)c1)n(C)c(=O)n2C` [Example 35, N-(6-(3-(benzyloxy)phenoxy)-1,3-dimethyl-2-oxo-2,3-dihydro-1H-benzo[d]imidazol-5-yl)-2-methylbenzenesulfonamide], which IC50 is on record?
**A.** > 1000 nM

**Q.** For `COc1cccc(Oc2cc3c(cc2NS(=O)(=O)c2cn(C)cn2)n(C)c(=O)n3C)c1` [Example 63, N-(6-(3-methoxyphenoxy)-1,3-dimethyl-2-oxo-2,3-dihydro-1H-benzo[d]imidazol-5-yl)-1-methyl-1H-imidazole-4-sulfonamide], which IC50 is on record?
**A.** 100 to 1000 nM

**Q.** How did the IC50 turn out when `CCCOc1cccc(Oc2cc3c(cc2NS(=O)(=O)c2cnn(C)c2C)n(C)c(=O)n3C)c1` [Example 91, N-(1,3-dimethyl-2-oxo-6-(3-propoxyphenoxy)-2,3-dihydro-1H-benzo[d]imidazol-5-yl)-1,5-dimethyl-1H-pyrazole-4-sulfonamide] was run?
**A.** 10 to 100 nM

**Q.** For `COc1ccc(S(=O)(=O)Nc2cc3c(cc2Oc2cccc(OCC4CC4)c2)n(C)c(=O)n3C)cc1OC` [Example 127, N-(6-(3-(cyclopropylmethoxy)phenoxy)-1,3-dimethyl-2-oxo-2,3-dihydro-1H-benzo[d]imidazol-5-yl)-3,4-dimethoxybenzenesulfonamide], which IC50 is on record?
**A.** 10 to 100 nM

**Q.** `CCCOc1cc(OCCCCNC)cc(Oc2cc3c(cc2NS(=O)(=O)c2ccc(OC)c(OC)c2)n(C)c(=O)n3C)c1` [Example 249, N-(1,3-dimethyl-6-{3-[4-(methylamino)butoxy]-5-propoxyphenoxy}-2-oxo-2,3-dihydro-1H-1,3-benzodiazol-5-yl)-3,4-dimethoxybenzene-1-sulfonamide] was tested. Which IC50 did it give?
**A.** 10 to 100 nM

**Q.** `CCn1cc(S(=O)(=O)Nc2cc3c(cc2Oc2cccc(OCc4ccccc4)c2)n(C)c(=O)n3C)cn1` [Example 77, N-(6-(3-(benzyloxy)phenoxy)-1,3-dimethyl-2-oxo-2,3-dihydro-1H-benzo[d]imidazol-5-yl)-1-ethyl-1H-pyrazole-4-sulfonamide] was tested. Which IC50 did it give?
**A.** 100 to 1000 nM

**Q.** For `CCCOc1cc(OCCCCCCO)cc(Oc2cc3c(cc2NS(=O)(=O)c2cccc(C(=O)OC)c2)n(C)c(=O)n3C)c1` [Example 185, methyl 3-(N-(6-(3-((6-hydroxynhexyl)oxy)-5-propoxyphenoxy)-1,3-dimethyl-2-oxo-2,3-dihydro-1H-benzo[d]imidazol-5-yl)sulfamoyl)benzoate], which IC50 is on record?
**A.** 100 to 1000 nM

**Q.** With `COCCCOc1cc(OCCCOC)cc(Oc2cc3c(cc2NS(=O)(=O)c2ccc(OC)c(OC)c2)n(C)c(=O)n3C)c1` [Example 122, N-(6-(3,5-bis(3-methoxypropoxy)phenoxy)-1,3-dimethyl-2-oxo-2,3-dihydro-1H-benzo[d]imidazol-5-yl)-3,4-dimethoxybenzenesulfonamide] as the compound, how does the IC50 read?
**A.** 10 to 100 nM

**Q.** `CCCOc1cc(C#N)cc(Oc2cc3c(cc2NS(=O)(=O)c2cn(C)c(C)n2)n(C)c(=O)n3C)c1` [Example 107, N-(6-(3-cyano-5-propoxyphenoxy)-1,3-dimethyl-2-oxo-2,3-dihydro-1H-benzo[d]imidazol-5-yl)-1,2-dimethyl-1H-imidazole-4-sulfonamide] was tested. Which IC50 did it give?
**A.** 10 to 100 nM

**Q.** `Cn1cnc(S(=O)(=O)Nc2cc3c(cc2Oc2cccc(OCC4CCOCC4)c2)n(C)c(=O)n3C)c1` [Example 65, N-(1,3-dimethyl-2-oxo-6-(3-((tetrahydro-2H-pyran-4-yl)methoxy)phenoxy)-2,3-dihydro-1H-benzo[d]imidazol-5-yl)-1-methyl-1H-imidazole-4-sulfonamide] was tested. Which IC50 did it give?
**A.** 100 to 1000 nM

**Q.** `COCCCOc1cc(OCC(F)(F)F)cc(Oc2cc3c(cc2NS(=O)(=O)c2cnn(C)c2C)n(C)c(=O)n3C)c1` [Example 204, N-(6-(3-(3-methoxypropoxy)-5-(2,2,2-trifluoroethoxy)phenoxy)-1,3-dimethyl-2-oxo-2,3-dihydro-1H-benzo[d]imidazol-5-yl)-1,5-dimethyl-1H-pyrazole-4-sulfonamide] was tested. Which IC50 did it give?
**A.** 10 to 100 nM

**Q.** With `COc1ccc(S(=O)(=O)Nc2cc3c(cc2Oc2cccc(OCCCCCCN)c2)n(C)c(=O)n3C)cc1OC` [Example 145, N-(6-(3-((6-aminohexyl)oxy)phenoxy)-1,3-dimethyl-2-oxo-2,3-dihydro-1H-benzo[d]imidazol-5-yl)-3,4-dimethoxybenzenesulfonamide] as the compound, how does the IC50 read?
**A.** 10 to 100 nM

**Q.** For `Cn1cnc(S(=O)(=O)Nc2cc3c(cc2Oc2cccc(OCCCO)c2)n(C)c(=O)n3C)c1` [Example 240, N-(6-(3-(3-hydroxypropoxy)phenoxy)-1,3-dimethyl-2-oxo-2,3-dihydro-1H-benzo[d]imidazol-5-yl)-1-methyl-1H-imidazole-4-sulfonamide], which IC50 is on record?
**A.** 100 to 1000 nM

**Q.** Which IC50 does the source give for `CCCOc1cc(OCCCCCCNC(C)=O)cc(Oc2cc3c(cc2NS(=O)(=O)c2cn(C)cn2)n(C)c(=O)n3C)c1` [Example 242, N-(6-(3-((1,3-dimethyl-6-(1-methyl-1H-imidazole-4-sulfonamido)-2-oxo-2,3-dihydro-1H-benzo[d]imidazol-5-yl)oxy)-5-propoxyphenoxy)hexyl)acetamide] here?
**A.** 10 to 100 nM

**Q.** For `Cn1c(=O)n(C)c2cc(Oc3cccc(OCC4CC4)c3)c(NS(=O)(=O)c3cccnc3)cc21` [Example 128, N-(6-(3-(cyclopropylmethoxy)phenoxy)-1,3-dimethyl-2-oxo-2,3-dihydro-1H-benzo[d]imidazol-5-yl)pyridine-3-sulfonamide], which IC50 is on record?
**A.** 10 to 100 nM

**Q.** Which IC50 does the source give for `CCCOc1ccc(F)c(Oc2cc3c(cc2NS(=O)(=O)c2cn(C)cn2)n(C)c(=O)n3C)c1` [Example 104, N-(6-(2-fluoro-5-propoxyphenoxy)-1,3-dimethyl-2-oxo-2,3-dihydro-1H-benzo[d]imidazol-5-yl)-1-methyl-1H-imidazole-4-sulfonamide] here?
**A.** > 1000 nM

Source: patent US20160060260A1, “BROMODOMAIN INHIBITORS FOR TREATING DISEASE” (Board of Regents, The University of Texas System, priority 2014, published 2016)
